{"source": "patent US20100081702A1", "about": "(priority 2007, published 2010)", "system": "concanavalin A (ConA)-induced mouse hepatitis models (T cell-dependent liver injury models)", "test": "concanavalin A (ConA)-induced mouse hepatitis model, AST and ALT in serum", "protocol": "Aspartate aminotransferase (AST) and alanine aminotransferase (ALT) in serum were measured as indices for liver injury in concanavalin A (ConA)-induced mouse hepatitis models used as T cell-dependent liver injury models. The inhibitory effects of compounds of the present invention on liver injury were studied.\nA compound suspension was orally administered at a dose of 1 mg/kg to male BALE/c mice. 24 hours after the oral administration, ConA was intravenously administered at a dose of 20 mg/kg to the tails of the mice. 24 hours after the ConA administration, blood was collected from the mice, and AST and ALT in serum were measured.", "data": [{"molecule": "COc1ccc(CCCC(=O)c2ccc(CC[C@@](C)(N)CO)n2C)cc1C", "note": "[Compound 1]", "values": [{"measurement": "inhibitory effects on ALT level elevating effects", "setting": "result in words, 1 mg/kg oral, ConA-induced mouse hepatitis", "result": "significant inhibitory effects"}, {"measurement": "AST level (mean ± S.E., IU/L)", "setting": "serum, compound 1 mg/kg oral 24 hours before ConA 20 mg/kg intravenous, blood collected 24 hours after ConA, **P < 0.01, *P < 0.05 vs. solvent (solvent 236.9 ± 52.6, negative control 105.2 ± 26.1)", "result": "97.4 ± 9.1** IU/L"}, {"measurement": "ALT level (mean ± S.E., IU/L)", "setting": "serum, compound 1 mg/kg oral 24 hours before ConA 20 mg/kg intravenous, blood collected 24 hours after ConA, **P <0.01, *P <0.05 vs. solvent (solvent 454.1 ± 137.8, negative control 76.4 ± 14.2)", "result": "101.6 ± 19.6** IU/L"}]}]}
